“Also recorded” adds a separate entry of the source. Structures can show the parent of a compound that is named as a salt.
Tests used:
[1] = system: spinal nerve ligation (Chung) model of neuropathic pain; assay: Spinal nerve ligation (Chung) model, tactile stimulation with electronic Von Frey probe; type: in vivo, rats; conditions: for mechanical hyperalgesia: force required to induce paw withdrawal, lesioned paw / pain (pressure) threshold in the non-lesioned paw: rats; for mechanical hyperalgesia: force required to induce paw withdrawal, lesioned paw: p.o. at the indicated doses 60 minutes before the test; for pain (pressure) threshold in the non-lesioned paw: p.o., non-lesioned paw (Panel B); for mechanical hyperalgesia: force required to induce paw withdrawal, lesioned paw / effect on mechanical hyperalgesia compared with morphine: lesioned paw; for effect on mechanical hyperalgesia compared with morphine: morphine 128 mg/kg p.o., near lethal dose
Method: (§1) Tight ligature of spinal nerves in rats is associated with hyperalgesia, allodynia and spontaneous pain, and thereby provides an accepted model for peripheral neuropathic pain in humans. Male Sprague-Dawley rats Rj:SD (IOPS Han) weighing 218-260 g at the beginning of the procedure were anesthetized (sodium pentobarbital 40 mg/kg i.p.) and an incision at the L4-S2 level was performed to expose the left L5 and L6 spinal nerves, which were then tightly ligated (4-0 silk suture) distal to the dorsal root ganglion and prior to entrance into the sciatic nerve, as first described by Kim and Chung (Pain 50:355-363, 1992). The wound was then sutured, and the rats received an […]. injection of clamoxyl (100 mg/kg […].) and were allowed to recover. 4 weeks after surgery, when the chronic pain state was fully installed, rats were submitted consecutively to tactile and thermal stimulation of both the non-lesioned and the lesioned hindpaws.
For tactile stimulation, the animal was placed under an inverted acrylic plastic box (18×11.5×13 cm) on a grid floor. The tip of an electronic Von Frey probe (Bioseb, model 1610) was then applied with increasing force to the non-lesioned and lesioned hindpaws and the force inducing paw-withdrawal was automatically recorded. This procedure was carried out 3 times and the mean force per paw was calculated.
(§2) Behavioral testing was carried out 2 weeks after surgery. Prior to receiving drug treatment all animals were submitted to tactile stimulation and assigned to treatment groups matched on the basis of their pain response. 8 rats were studied per group, and the tests were performed blind.
(§3) Bicifadine was evaluated at the indicated doses, administered p.o. 60 minutes before the test, and compared with a vehicle control group. Morphine (128 mg/kg p.o.), used as a reference substance, was administered under the same experimental conditions.
(§4) Data were analyzed by comparing the responses of lesioned paws in the treatment groups with vehicle control group using paired and unpaired Student's t tests.
(§5) In the instant example, another exemplary, substituted 1-aryl-3-azabicyclo[3.1.0]hexane was evaluated for its ability to alleviate symptoms associated with neuropathy in the spinal nerve ligation (Chung) model of neuropathic pain. In this study, a multiply aryl-subsituted compound as described above, 1-(3,4-dichlorophenyl)-3-azabicyclo[3.1.0]hexane was assayed according to the procedures described above in Example 1. The 1-(3,4-dichlorophenyl)-3-azabicyclo[3.1.0]hexane was administered to test animals at the indicated doses p.o. 60 minutes before the test, and compared with a vehicle control group. Data were analyzed by comparing the responses of lesioned paws in the treatment groups with vehicle control group using paired and unpaired Student's t tests, as described in Example 1.

[2] = system: spinal nerve ligation (Chung) model of neuropathic pain; assay: Spinal nerve ligation (Chung) model, thermal stimulation (infrared radiant source); type: in vivo, rats; conditions: for thermal hyperalgesia: paw withdrawal latency, lesioned paw / response to application of heat in the non-lesioned paw: rats; for thermal hyperalgesia: paw withdrawal latency, lesioned paw: p.o. at the indicated doses 60 minutes before the test; for response to application of heat in the non-lesioned paw: p.o., non-lesioned paw (Panel B); for thermal hyperalgesia: paw withdrawal latency, lesioned paw / effect on thermal hyperalgesia compared with morphine: lesioned paw; for effect on thermal hyperalgesia compared with morphine: morphine 128 mg/kg PO, nearly lethal dose
Method: as §1
For thermal stimulation, the apparatus (Model 7200, Ugo Basile, Italy) consists of individual acrylic plastic boxes (17×11×13 cm) placed upon an elevated glass floor. A rat was placed in the box and left free to habituate for 10 minutes. A mobile infrared radiant source (96±10 mW/cm^2) was then focused under the non-lesioned and lesioned hindpaws and the paw-withdrawal latency was automatically recorded. In order to prevent tissue damage the heat source was automatically turned off after 45 seconds.
as §2, §3, §4, §5

[3] = system: acute inflammatory pain produced by injection of yeast extract into the rat paw; conditions: cited from earlier work
[4] = system: nociceptive pain following dental surgery; conditions: humans; cited from earlier work
[5] = system: Streptozotocin (STZ)-induced diabetes rat model of neuropathy; assay: Streptozotocin (STZ)-induced diabetes rat model, paw pressure test; type: in vivo, rats; conditions: 60 minutes after dosing; for mechanical hyperalgesia: nociceptive threshold (paw pressure): STZ diabetic rats, oral, vs vehicle-treated diabetic rats, hydrochloride
Method: Male Sprague Dawley rats Rj:SD (IOPS Han) weighing 218-260 g at the beginning of the experiment, were included in this study for the induction of diabetes. These were divided into vehicle control and streptozotocin treated groups. The rats were housed in a temperature (19.5-24.5° C.) and relative humidity (45-65%) controlled room with a 12-h light/dark cycle, with ad libitum access to filtered tap water and standard pelleted laboratory chow throughout the study.
On day 0, diabetes was induced by intraperitoneal injection of streptozotocin (STZ; 75 mg/kg) to the rats. On day 23, to confirm the presence of diabetes in the STZ-administered rats, hyperglycemia was measured using blood glucose strips. Animals with a blood sugar level lower than […] were not used in further investigations.
Animals found useful for inclusion in additional investigations were dosed orally with bicifadine at the indicated doses, and the nociceptive threshold tested sixty minutes later. The nociceptive threshold was evaluated using a mechanical nociceptive stimulus (paw pressure test). An increasing pressure was applied onto the hindpaw of the animal until the nociceptive response (vocalization or paw withdrawal) was reached. The pain threshold (grams of contact pressure) was measured in both hindpaws.
Results are expressed as the nociceptive threshold (mean±SEM) in grams of contact pressure for each group, calculated from individual nociceptive thresholds (mean values of the nociceptive thresholds obtained for both hindpaws). Statistical significance between the bicifadine treated groups and the vehicle-treated diabetic group was determined by a […], using the residual variance after a one-way analysis of variance (P<0.05).

[6] = morphine 128 mg/kg p.o. (nearly lethal dose), vs vehicle
[7] = listed as Bicfifadine, hydrochloride
[8] = vs vehicle, listed as bicifadine HCl, hydrochloride

Clc1ccc(C23CNCC2C3)cc1Cl (centres unmarked) [1-(3,4-dichlorophenyl)-3-azabicyclo[3.1.0]hexane]
mechanical hyperalgesia: force required to induce paw withdrawal, lesioned paw ([1]; vs vehicle): potently suppressed tactile allodynia; also recorded: significant increase in the force required to induce paw withdrawal; also recorded: suppresses mechanical hyperalgesia
pain (pressure) threshold in the non-lesioned paw [1]: not due to debilitation of the animal; also recorded: no effect
thermal hyperalgesia: paw withdrawal latency, lesioned paw ([2]; vs vehicle): dose-dependently suppressed thermal hyperalgesia; also recorded: significant increase in paw withdrawal latency; also recorded: suppresses thermal hyperalgesia
response to application of heat in the non-lesioned paw [2]: not due to debilitation of the animal; also recorded: no effect

COc1ccc2c3c1O[C@H]1[C@@H](O)C=C[C@H]4[C@@H](C2)N(C)CC[C@@]341 [codeine]
activity in the Randall-Selitto test [3]: active

CN1CC[C@]23c4c5ccc(O)c4O[C@H]2[C@@H](O)C=C[C@H]3[C@H]1C5 [morphine, reference compound]
threshold for nociceptive response, mechanical pressure, lesioned paw [1, 6]: significant increase
threshold for nociceptive response, thermal stimulus, lesioned paw [2, 6]: significant increase
activity in the Randall-Selitto test [3]: active

Cc1ccc([C@]23CNC[C@H]2C3)cc1 (racemic) [bicifadine, (±)-1-(4-methylphenyl)-3-azabicyclo[3.1.0]hexane hydrochloride]
force required to induce paw withdrawal, lesioned paw ([1]; 50 mg/kg PO, 60 minutes before the test, vs vehicle treated lesioned paws): significant increase
effect on mechanical hyperalgesia compared with morphine ([1]; hydrochloride): more potent than morphine
effect on mechanical hyperalgesia compared with morphine [1, 7]: as effective as a near lethal dose morphine
mechanical hyperalgesia: force required to induce paw withdrawal, lesioned paw ([1]; vs vehicle, hydrochloride): statistically significant increase; also recorded: effectively suppressed
mechanical hyperalgesia: force required to induce paw withdrawal, lesioned paw [1, 8]: suppresses mechanical hyperalgesia
pain (pressure) threshold in the non-lesioned paw ([1]; hydrochloride): does not affect; also recorded: no effect
paw withdrawal latency in response to a thermal stimulus, lesioned paw ([2]; all doses tested (12.5-100 mg/kg PO), vs vehicle): significant increase
effect on thermal hyperalgesia compared with morphine ([2]; hydrochloride): approximately equivalent
effect on thermal hyperalgesia compared with morphine [2, 7]: as effective as a near lethal dose morphine
thermal hyperalgesia: paw withdrawal latency, lesioned paw ([2]; vs vehicle, hydrochloride): effectively suppressed
thermal hyperalgesia: paw withdrawal latency, lesioned paw [2, 8]: suppresses thermal hyperalgesia
response to application of heat in the non-lesioned paw ([2]; hydrochloride): does not affect; also recorded: no effect
relief of pain following dental surgery compared with codeine and tramadol [4]: as effective as codeine and tramadol
nociceptive threshold (paw pressure) ([5]; 12.5 and 25 mg/kg oral, vs vehicle treated diabetic animals): significant (P<0.05) increase
mechanical hyperalgesia: nociceptive threshold (paw pressure) [5]: reduces mechanical hyperalgesia; also recorded: effectively alleviates neuropathy symptoms (mechanical hyperalgesia)
mechanical hyperalgesia: nociceptive threshold (paw pressure) ([5]; listed as Bicifadine): increased the amount of pressure an animal could withstand; also recorded: restore the amount of pressure tolerated in these diabetic rats to values approaching those obtained in control animals
activity in the Randall-Selitto test [3]: potent and active

CC(=O)Oc1ccccc1C(=O)O [aspirin]
activity in the Randall-Selitto test [3]: active
